Legend:
[1] = Decomposition of compound (I) on adding a basic ingredient; type: physicochemical; settings: basic ingredient added to compound (I)
[2] = pH dependence of the dissolution rate of compound (I); type: physicochemical; settings: compared with approximately pH 1.2 (gastric juice) and approximately pH 6.8 (intestinal juice)

## CCOC(=O)COc1cc(C)c(CCN[C@@H](C)[C@H](O)c2ccc(O)cc2)cc1C.Cl [compound (I), Ethyl (−)-2-[4-[2-[[(1S,2R)-2-hydroxy-2-(4-hydroxy-phenyl)-1-methylethyl]amino]ethyl]-2,5-dimethylphenoxy]-acetate hydrochloride]
[1]
  decomposition of compound (I): decomposition of compound (I) itself was accelerated
[2]
  pH of the highest dissolution rate of the active ingredient: highest dissolution rate at approximately pH 4
